# Measured values: patent publication US20250270221A1, “SOLID FORMS OF JAK INHIBITOR AND PROCESS OF PREPARING THE SAME” (Incyte Corporation, priority 2022, published 2025)
# Key:
# Assay type in all cases: physicochemical
# [1] = Solubility of crystalline ruxolitinib di-hydrate in organic solvents; conditions: for solubility: organic solvent or mixture, thermodynamic from solid
# Source text: The resulting ruxolitinib free base readily dissolved in the organic solvents.
# [2] = Water activity slurry experiments (XRPD of solid phase); conditions: 20 d
# Experimental: Limited water activity slurries were conducted utilizing ruxolitinib di-hydrate (see table below). The effect of water activity (aw) on the hydration state of the di-hydrate was investigated through competitive water activity trituration experiments (slurries) in various aqueous solvent mixtures. The resulting solid phase was characterized by XRPD. […] Water activity is also related to relative humidity in that RH %=aw×100. Therefore, it is possible to directly relate the stability of an anhydrous/hydrate system in slurry experiments to solid-state stability. […] The method is particularly valuable when relatively slow kinetics of conversion in the solid state prevents reaching true equilibrium in a reasonable timeframe, since solvent-mediated transformation accelerates the conversion process.
# [3] = Dynamic vapor sorption (DVS Intrinsic, Method D, not dried); set-up: Hysteresis: unit not given here
# Experimental: The samples were not dried prior to analysis. Sorption and desorption data were collected from 5% to 95% RH in 10% RH increments under a nitrogen purge. The equilibrium criteria used for the analyses were 0.001 dm/dt weight change in 5 minutes with a minimum step time of 30 minutes and maximum equilibration time of 180 minutes with a 3 minute data logging interval. Data were not corrected for the initial moisture content of the sample.
# [4] = Dynamic vapor sorption (VTI-SA+, sample pre-dried at 60° C.)
# Experimental: The DVS experiment was performed on a VTI-SA+ Vapor Sorption Analyzer from TA Instruments. […] Then the humidity was cycled from 5% RH to 95% RH (adsorption) and back to 5% RH (desorption) with 5% RH interval at a constant temperature of 25° C. The equilibration criteria were 0.010 wt % in 5 minutes with a maximum equilibration time of 180 minutes per step.
# [5] = Dehydration of ruxolitinib di-hydrate (resulting solid form)
# Source text: Dehydration of ruxolitinib di-hydrate results in the isolation of anhydrous crystalline ruxolitinib free base (Form I) (see table below). Form I is described in more detail in Example 15.
# [6] = Aqueous solubility of crystalline ruxolitinib di-hydrate; conditions: 20 °C, thermodynamic from solid, 20-25° C.
# [7] = Relative humidity testing (physical stability, XRPD)
# Source text: Ruxolitinib di-hydrate was held at select relative humidities to help determine range of physical stability (see table below). The d-hydrate was transferred to a vial, which was then uncapped and placed inside a jar, for a designated time period, containing a saturated aqueous salt solution: […]
# [8] = Target RH 95.0%, sample RH 94.0%
structure (smiles),measurement,setting,value
"N#CC[C@H](C1CCCC1)n1cc(-c2ncnc3[nH]ccc23)cn1 [Ruxolitinib Di-hydrate, (R)-3-(4-(7H-pyrrolo[2,3-d]pyrimidin-4-yl)-1H-pyrazol-1-yl)-3-cyclopentylpropanenitrile di-hydrate]",solubility,[1]; acetone,> 500000 µg/mL
same,solubility,[1]; ethyl acetate,> 200000 µg/mL
same,solubility,[1]; Ethanol (EtOH),> 500000 µg/mL
same,solubility,[1]; Isopropanol (IPA),> 500000 µg/mL
same,solubility,[1]; Methanol (MeOH),> 500000 µg/mL
same,Behaviour of the hydrate in polar solvents,[1]; polar organic solvents,lost crystalline water
same,Result (solid form),"[2]; 0.34 aw, 75:25 DMSO/H2O",Di-hydrate
same,Result (solid form),"[2]; 0.42 aw, 70:30 DMSO/H2O",Di-hydrate
same,Result (solid form),"[2]; 0.68 aw, 50:50 DMSO/H2O",Di-hydrate
same,Sorp Mass Change,"[3]; Target RH 5.0%, sample RH 4.8%",0.0013%
same,Desorp Mass Change,"[3]; Target RH 5.0%, sample RH 5.6%",0.0334%
same,Hysteresis,[3]; Target RH 15.0%,0.0528
same,Sorp Mass Change,"[3]; Target RH 15.0%, sample RH 15.1%",0.0412%
same,Desorp Mass Change,"[3]; Target RH 15.0%, sample RH 17.1%",0.0940%
same,Hysteresis,[3]; Target RH 25.0%,0.0461
same,Sorp Mass Change,"[3]; Target RH 25.0%, sample RH 25.0%",0.0707%
same,Desorp Mass Change,"[3]; Target RH 25.0%, sample RH 25.8%",0.1168%
same,Hysteresis,[3]; Target RH 35.0%,0.0399
same,Sorp Mass Change,"[3]; Target RH 35.0%, sample RH 35.0%",0.0904%
same,Desorp Mass Change,"[3]; Target RH 35.0%, sample RH 35.9%",0.1302%
same,Hysteresis,[3]; Target RH 45.0%,0.0378
same,Sorp Mass Change,"[3]; Target RH 45.0%, sample RH 45.1%",0.1069%
same,Desorp Mass Change,"[3]; Target RH 45.0%, sample RH 46.0%",0.1447%
same,Hysteresis,[3]; Target RH 55.0%,0.0357
same,Sorp Mass Change,"[3]; Target RH 55.0%, sample RH 55.1%",0.1214%
same,Desorp Mass Change,"[3]; Target RH 55.0%, sample RH 56.0%",0.1572%
same,Hysteresis,[3]; Target RH 65.0%,0.0347
same,Sorp Mass Change,"[3]; Target RH 65.0%, sample RH 65.1%",0.1359%
same,Desorp Mass Change,"[3]; Target RH 65.0%, sample RH 66.0%",0.1706%
same,Hysteresis,[3]; Target RH 75.0%,0.0311
same,Sorp Mass Change,"[3]; Target RH 75.0%, sample RH 74.9%",0.1561%
same,Desorp Mass Change,"[3]; Target RH 75.0%, sample RH 76.6%",0.1872%
same,Hysteresis,[3]; Target RH 85.0%,0.0233
same,Sorp Mass Change,"[3]; Target RH 85.0%, sample RH 84.8%",0.1882%
same,Desorp Mass Change,"[3]; Target RH 85.0%, sample RH 87.6%",0.2115%
same,Desorp Mass Change,[3]; [8],0.2343%
same,Sorp Mass Change,[3]; [8],0.2343%
same,Weight lost upon desorption,[3]; desorption 95 to 5% RH,0.20%
same,Weight gained,[3]; from 5 to 95% relative humidity,0.23%
same,Solid form after pre-dried step,[4]; 60° C. under dry N2 (0% RH) for 1 h,dehydrated to form amorphous ruxolitinib free base
same,Solid form after DVS (XRPD),"[4]; after cycle 5% RH to 95% RH and back to 5% RH, 25° C.",crystalline ruxolitinib di-hydrate
same,Water re-adsorbed,"[4]; at 95% RH, 25° C., after pre-drying at 60° C.",9.6%
same,Result (solid form),"[5]; 42° C. oven, 1 d",Di-
same,Result (solid form),"[5]; 50° C., vacuum oven, 1 d",Form I
same,Result (solid form),[5]; 80° C./30 minutes,amorphous
same,Result (solid form),[5]; 110° C./20 minutes,amorphous
same,Result (solid form),"[5]; P2O5 jar, RT, 4 d",Form I
same,Result (solid form),"[5]; P2O5 jar, RT, 5 d",Form I
same,Result (solid form),"[5]; P2O5 jar, RT, 13 d",conversion
same,Result (solid form),"[5]; P2O5 jar, RT, 21 d, di-hydrate crystals",Form I
same,Result (solid form),"[5]; RT, vacuum oven, 1 d",Form I
same,solubility,"[6]; aqueous buffer, pH 6.0 (PBS)",17.4 µg/mL
same,solubility,"[6]; aqueous buffer, pH 6.5 (PBS)",106 µg/mL
same,solubility,"[6]; aqueous buffer, pH 7.0 (PBS)",101 µg/mL
same,solubility,"[6]; aqueous buffer, pH 7.4 (PBS)",100 µg/mL
same,solubility,"[6]; fassif, FeSSIF (pH 6.5)",112 µg/mL
same,solubility,"[6]; saline or isotonic, Saline (pH 5.5)",105 µg/mL
same,solubility,"[6]; simulated gastric fluid, 0.1N HCl",> 10700 µg/mL
same,solubility,"[6]; simulated gastric fluid, SGF (pH 1.6)",> 11000 µg/mL
same,solubility,[6]; FeSSIF (pH 5.0),419 µg/mL
same,solubility,[6]; Water,111 µg/mL
same,solubility,"[6]; HCl solution, simulated gastric fluid, pH 2.0 (HCl)",3470 µg/mL
same,solubility,"[6]; KHP buffer, aqueous buffer, pH 3.0 (KHP)",1570 µg/mL
same,solubility,"[6]; KHP buffer, aqueous buffer, pH 5.5 (KHP)",107 µg/mL
same,solubility,"[6]; KPH buffer (so in the source), aqueous buffer, pH 4.0 (KPH)",362 µg/mL
same,solubility,"[6]; acetate buffer, aqueous buffer, pH 5.5 (Acetate)",93.5 µg/mL
same,solubility,"[6]; aqueous KHP solution, aqueous buffer, pH 5.0 (KHP)",147 µg/mL
same,solubility,"[6]; aqueous acetate solution, aqueous buffer, pH 4.0 (Acetate)",186 µg/mL
same,solubility,"[6]; aqueous acetate solution, aqueous buffer, pH 5.0 (Acetate)",296 µg/mL
same,solubility,"[6]; borate buffer, aqueous buffer, pH 8.5 (Borate)",112 µg/mL
same,Result (solid form),"[7]; 0% RH, N2, RT, 1 d",Di-hydrate + Form I
same,Result (solid form),"[7]; 11% RH, RT, 2 d",Di-hydrate
same,Result (solid form),"[7]; 11% RH, RT, 14 d",Di-hydrate
same,Result (solid form),"[7]; 33% RH, RT, 2 d",Di-hydrate
same,Result (solid form),"[7]; 53% RH, RT, 2 d",Di-hydrate
same,Result (solid form),"[7]; 98% RH, RT, 2 d",Di-hydrate
same,Result (solid form),"[7]; 98% RH, RT, 4 d",Di-hydrate
same,Relative humidity at which the di-hydrate form is physically stable,[7]; during the time tested,above 11 % RH
same,Relative humidity of conversion to anhydrous crystalline free base form (Form I),"[7]; undetermined value, during the time tested",below 11 % RH
